Measurements reported in PubChem BioAssay (NCI).
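Growth conditions: 96-well plates. Treatment: test compound, 48 hours, 5 concentrations. Analysis: linear interpolation between bracketing concentrations; unreached endpoints set to highest concentration. GI50 marks 50% less growth. TGI denotes the concentration required for complete inhibition of growth.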

Legend:
Assay in all cases: NCI tumour cell line growth inhibition, 48 h
[1] = test system: CCRF-CEM leukemia
[2] = test system: MOLT-4 leukemia
[3] = test system: IGROV1 ovarian
[4] = test system: SF-539 CNS
[5] = test system: SK-MEL-2 melanoma
[6] = test system: SNB-75 CNS
[7] = test system: HOP-92 NSCLC
[8] = test system: OVCAR-8 ovarian
[9] = test system: SW-620 colon
[10] = test system: SR leukemia
[11] = test system: CAKI-1 renal
[12] = test system: HCT-116 colon
[13] = test system: HCT-15 colon
[14] = test system: SK-OV-3 ovarian
[15] = test system: A549 NSCLC
[16] = test system: OVCAR-4 ovarian
[17] = test system: UO-31 renal
[18] = test system: UACC-257 melanoma
[19] = test system: BT-549 breast
[20] = test system: SF-268 CNS
[21] = test system: EKVX NSCLC
[22] = test system: MALME-3M melanoma
[23] = test system: HCC-2998 colon
[24] = test system: HOP-62 NSCLC
[25] = test system: UACC-62 melanoma
[26] = test system: NCI-H23 lung
[27] = test system: PC-3 prostate
[28] = test system: U251 CNS
[29] = test system: DU-145 prostate
[30] = test system: M14 melanoma
[31] = test system: SN12C renal
[32] = test system: NCI/ADR-RES ovarian
[33] = test system: K-562 leukemia
[34] = test system: KM12 colon
[35] = test system: TK-10 renal
[36] = test system: MDA-MB-231 breast
[37] = test system: HL-60(TB) leukemia
[38] = test system: 786-0 renal
[39] = test system: T-47D breast
[40] = test system: SK-MEL-28 melanoma
[41] = test system: MDA-MB-435
[42] = test system: NCI-H226 lung
[43] = test system: OVCAR-5 ovarian
[44] = test system: A498 renal
[45] = test system: SF-295 CNS
[46] = test system: COLO 205 colon
[47] = test system: LOX IMVI melanoma
[48] = test system: SNB-19 CNS
[49] = test system: MCF7 breast
[50] = test system: OVCAR-3 ovarian
[51] = test system: RPMI-8226 leukemia
[52] = test system: HS 578T breast
[53] = test system: HT29 colon
[54] = test system: RXF 393 renal
[55] = test system: NCI-H460 lung
[56] = test system: ACHN renal
[57] = test system: SK-MEL-5 melanoma
[58] = test system: NCI-H522 lung

Nc1cccc(CCN2CCN(CCCc3ccccc3)CC2)c1 showed a TGI [1] greater than 100000 nM, a TGI [2] greater than 100000 nM and a TGI [3] greater than 100000 nM. The TGI [4] was 40600 nM, the TGI [5] was greater than 100000 nM and the TGI [6] was greater than 100000 nM. It also gave a TGI [7] of 53800 nM, a TGI [8] of 63200 nM and a TGI [9] greater than 100000 nM. For the same molecule, the TGI [10] was 65900 nM, the TGI [11] was greater than 100000 nM and the TGI [12] was 36700 nM. The TGI [13] was 38200 nM, the TGI [14] was greater than 100000 nM and the TGI [15] was greater than 100000 nM. For the same molecule, the TGI [16] was greater than 100000 nM, the TGI [17] was greater than 100000 nM and the TGI [18] was 65300 nM. For the same molecule, the TGI [19] was greater than 100000 nM, the TGI [20] was greater than 100000 nM and the TGI [21] was greater than 100000 nM. The TGI [22] was 38000 nM, the TGI [23] was 28200 nM and the TGI [24] was greater than 100000 nM. For the same molecule, the TGI [25] was 52700 nM, the TGI [26] was greater than 100000 nM and the TGI [27] was greater than 100000 nM. It also gave a TGI [28] greater than 100000 nM, a TGI [29] greater than 100000 nM and a TGI [30] of 32300 nM. It also gave a TGI [31] greater than 100000 nM, a TGI [32] greater than 100000 nM and a TGI [33] greater than 100000 nM. For the same molecule, the TGI [34] was 81500 nM, the TGI [35] was greater than 100000 nM and the TGI [36] was greater than 100000 nM. For the same molecule, the TGI [37] was greater than 100000 nM, the TGI [38] was 37400 nM and the TGI [39] was 52600 nM. The TGI [40] was 88400 nM, the TGI [41] was 36900 nM and the TGI [42] was greater than 100000 nM. The TGI [43] was greater than 100000 nM, the TGI [44] was greater than 100000 nM and the TGI [45] was 70000 nM. For the same molecule, the TGI [46] was 34800 nM, the TGI [47] was 33100 nM and the TGI [48] was greater than 100000 nM. For the same molecule, the TGI [49] was 36400 nM, the TGI [50] was 41200 nM and the TGI [51] was greater than 100000 nM. It also gave a TGI [52] greater than 100000 nM, a TGI [53] of 46500 nM and a TGI [54] of 52200 nM. The TGI [55] was 71400 nM, the TGI [56] was greater than 100000 nM and the TGI [57] was 34300 nM. The TGI [58] was 30100 nM.

Molecule C[C@H]1CCC/C=C/[C@@H]2C[C@H](O)C[C@H]2[C@H](O)[C@@H](S(=O)C[C@@H](N)C(=O)O)CC(=O)O1 (stereo partly specified) has a GI50 [1] of 50.8 nM, a TGI [1] of 50200 nM and a GI50 [2] of 46.4 nM. It also gave a GI50 [3] of 238 nM, a TGI [3] of 19100 nM and a GI50 [4] of 35.8 nM. For the same molecule, the TGI [4] was greater than 100000 nM, the GI50 [5] was 1290 nM and the TGI [6] was 19.4 nM. The GI50 [7] was 42.8 nM, the TGI [7] was 1650 nM and the GI50 [8] was 32.3 nM. The TGI [8] was 2840 nM, the GI50 [9] was 53.3 nM and the GI50 [10] was 82 nM. For the same molecule, the GI50 [11] was 210 nM, the GI50 [12] was 32.5 nM and the TGI [12] was 1690 nM. It also gave a GI50 [13] of 137 nM, a TGI [13] of 2260 nM and a GI50 [14] of 117 nM. For the same molecule, the TGI [14] was greater than 82800 nM, the TGI [15] was greater than 100000 nM and the GI50 [16] was 44.5 nM. For the same molecule, the TGI [16] was greater than 75000 nM, the GI50 [17] was 37 nM and the TGI [17] was 1620 nM. It also gave a GI50 [18] of less than 18.2 nM, a TGI [18] greater than 100000 nM and a GI50 [19] of 86.2 nM. The TGI [19] was greater than 100000 nM, the GI50 [20] was 20.7 nM and the TGI [20] was greater than 19900 nM. It also gave a GI50 [21] of 84.2 nM, a TGI [21] greater than 52300 nM and a TGI [22] of 25.7 nM. For the same molecule, the GI50 [23] was 30.3 nM, the TGI [23] was 256 nM and the GI50 [24] was 241 nM. For the same molecule, the TGI [24] was greater than 100000 nM, the GI50 [25] was 29.7 nM and the TGI [25] was greater than 100000 nM. The GI50 [26] was 86.2 nM, the TGI [26] was 8130 nM and the TGI [27] was greater than 26200 nM. For the same molecule, the GI50 [28] was 70.9 nM, the TGI [28] was greater than 100000 nM and the GI50 [29] was 434 nM. It also gave a TGI [29] greater than 100000 nM, a GI50 [30] of 42.9 nM and a TGI [30] greater than 100000 nM. The GI50 [31] was 156 nM, the TGI [31] was 1830 nM and the GI50 [32] was less than 16.5 nM. For the same molecule, the TGI [32] was 384 nM, the GI50 [33] was 884 nM and the TGI [33] was greater than 100000 nM. It also gave a GI50 [34] of less than 14 nM, a TGI [34] of 60.5 nM and a GI50 [35] of 199 nM. For the same molecule, the GI50 [36] was 25.1 nM, the TGI [36] was 52.8 nM and the GI50 [37] was 142 nM. The GI50 [38] was less than 18.1 nM, the GI50 [39] was 244 nM and the TGI [39] was 992 nM. The GI50 [40] was 29.1 nM, the TGI [40] was greater than 100000 nM and the GI50 [41] was 48 nM. It also gave a TGI [41] greater than 100000 nM, a GI50 [42] of 19.3 nM and a GI50 [43] greater than 100000 nM. It also gave a TGI [43] greater than 100000 nM, a GI50 [44] of 30.9 nM and a TGI [44] of 149 nM. It also gave a GI50 [45] of 109 nM, a TGI [45] greater than 100000 nM and a GI50 [46] of 14.4 nM. For the same molecule, the TGI [46] was 29.3 nM, the GI50 [47] was 20.3 nM and the TGI [47] was 63.6 nM. The TGI [48] was greater than 100000 nM, the GI50 [49] was 30.3 nM and the GI50 [50] was 42.5 nM. It also gave a GI50 [51] of 395 nM, a TGI [51] greater than 95300 nM and a GI50 [52] of 15.2 nM. It also gave a TGI [52] greater than 100000 nM, a GI50 [54] of 20200 nM and a TGI [54] of 86700 nM. It also gave a GI50 [55] of 245 nM, a TGI [55] greater than 100000 nM and a GI50 [56] of 83.3 nM. The TGI [56] was 669 nM, the GI50 [57] was 20.9 nM and the TGI [57] was 107 nM. For the same molecule, the GI50 [58] was 175 nM and the TGI [58] was 870 nM.
